# Literature values, collected in article PMC3074590 (Science (New York, N.Y.), 2010).
# System: CXCR4
# Details: characterized previously; no reference printed at this statement
structure (smiles),measurement,value
CC1(C)CN2C(CSC(=NC3CCCCC3)NC3CCCCC3)=CSC2=N1 [IT1t],mode of inhibition of CXCL12,competitive inhibitors of CXCL12
